Tests used:
[1] = Cytotoxicity against cisplatin-sensitive mouse MB49 cells assessed as inhibition of cell growth incubated for 72 hrs by MTT assay; assay type: functional, cell-based; details: MB49, 72 h
HCT-116 = assay: Cytotoxicity against human HCT-116 cells assessed as inhibition of cell growth incubated for 72 hrs by MTT assay; assay type: functional, cell-based; details: HCT-116, 72 h
A549 [2] = assay: Cytotoxicity against human A549 cells assessed as inhibition of cell growth incubated for 72 hrs by MTT assay; assay type: functional, cell-based; details: A549, 72 h
A549 [3] = assay: Induction of apoptosis in human A549 cells assessed as caspase 3/7 positive cells at 100 uM incubated for 48 hrs by […] staining and caspase 3/7 reagent based analysis relative to control; assay type: functional
A549 [4] = assay: Induction of apoptosis in human A549 cells assessed as caspase 3/7 positive cells at 31.6 uM incubated for 48 hrs by […] staining and caspase 3/7 reagent based analysis relative to control; assay type: functional
[5] = Cytotoxicity against cisplatin-resistant mouse MB49 cells assessed as inhibition of cell growth incubated for 72 hrs by MTT assay; assay type: functional, cell-based; details: MB49, 72 h
[6] = Induction of caspase3/7-mediated apoptosis in human A549 cells assessed as increase in mean fluorescence intensity at 10 to 100 uM incubated for 48 hrs; assay type: functional; details: dose 10-100 µM

CC(C)[C@@H](C)/C=C/[C@@H](C)[C@H]1CC[C@]2(C3=C[C@H](O)C4=C[C@@H](O)CC[C@]4(C)C3=O)OC(=O)C[C@]12C
IC50 [1]: 12.7 µM | IC50 (HCT-116): 4.8 µM | IC50 (A549 [2]): 5.3 µM | Activity (A549 [3]): 81.9% | Activity (A549 [4]): 21.1% | IC50 [5]: 12.7 µM | Activity [6]: 2000

CC(C)[C@@H](C)/C=C/[C@@H](C)[C@H]1CC[C@]2(C3=CC(=O)[C@@H]4C[C@H](O)CC[C@]4(C)C3=O)OC(=O)C[C@]12C
IC50 [1]: > 100 µM | IC50 (HCT-116): 57.8 µM | IC50 (A549 [2]): > 100 µM | IC50 [5]: > 100 µM

CC(C)[C@@H](C)/C=C/[C@@H](C)[C@H]1CC[C@]2(C3=CC(=O)C4=CC(=O)CC[C@]4(C)C3=O)OC(=O)C[C@]12C
IC50 [1]: 53.6 µM | IC50 (HCT-116): 45 µM | IC50 (A549 [2]): 54.3 µM | IC50 [5]: 54.3 µM

CC(C)[C@@H](C)/C=C/[C@@H](C)[C@H]1CC[C@]2(C3=C[C@H](O)[C@@H]4C[C@H](O)CC[C@]4(C)C3=O)OC(=O)C[C@]12C
IC50 [1]: 34.1 µM | IC50 (HCT-116): 14.6 µM | IC50 (A549 [2]): 19.7 µM | IC50 [5]: 14.2 µM
